Assay results from patent US6583136B1, “Antifungal ethers” (Janssen Pharmacuetica N.V., priority 1999, dated 2003).

Tests used:
Candida tropicalis = test: Determination of fungal susceptibility (MIC); format: cell-based; details: CYG medium, 2 days at 37° C., growth to 35% of control or less
Protocol: (§1) A panel of Candida isolates plus single isolates of the dermatophytes Microsporum canis, Trichophyton rubrum and Trichophyton mentagrophytes; Aspergillus fumigatus, and Cryptococcus neoformans were used to evaluate the activity of the test compounds in vitro. Inocula were prepared as broth cultures (yeasts) or as suspensions of fungal material made from agar slope cultures (moulds). The test compounds were pipetted from dimethylsulfoxide stock solution into water to provide a series of 10-fold dilutions. The fungal inocula were suspended in the growth medium CYG (F. C. Odds, Journal of Clinical Microbiology, 29, 2735-2740, 1991) at approximately 50,000 colony-forming units (CFU) per ml and added to the aqueous test drugs. The cultures were set up in the 96 wells of plastic microdilution plates and they were incubated for 2 days at 37° C. (Candida spp.) or for 5 days at 30° C. (other fungi). Growth in the microcultures was measured by their optical density (OD) measured at a wavelength of 405 nm. The OD for cultures with test compounds was calculated as a percentage of the OD for control cultures, i.e. the OD for cultures without test compounds. Inhibition of growth to 35% of control or less was recorded as significant inhibition.
(§2) Minimal inhibitory concentration (MIC; in 10^−6 M) of some of the compounds of formula (I) for Candida glabrata, Candida krusei, Candida parapsilosis, Candida albicans, Candida kefyr, Candida tropicalis, Microsporum canis, Trichophyton rubrum, Trichophyton mentagrophytes, Cryptococcus neoformans and Aspergillus fumigatus are listed in table 3.

Trichophyton rubrum = test: Determination of fungal susceptibility (MIC); format: cell-based; details: CYG medium, 5 days at 30° C., growth to 35% of control or less
Protocol: as §1, §2

Aspergillus fumigatus = test: Determination of fungal susceptibility (MIC); format: cell-based; details: CYG medium, 5 days at 30° C., growth to 35% of control or less
Protocol: as §1, §2

Microsporum canis = test: Determination of fungal susceptibility (MIC); format: cell-based; details: CYG medium, 5 days at 30° C., growth to 35% of control or less
Protocol: as §1, §2

Candida glabrata = test: Determination of fungal susceptibility (MIC); format: cell-based; details: CYG medium, 2 days at 37° C., growth to 35% of control or less
Protocol: as §1, §2

Candida albicans = test: Determination of fungal susceptibility (MIC); format: cell-based; details: CYG medium, 2 days at 37° C., growth to 35% of control or less
Protocol: as §1, §2

Candida kefyr = test: Determination of fungal susceptibility (MIC); format: cell-based; details: CYG medium, 2 days at 37° C., growth to 35% of control or less
Protocol: as §1, §2

Candida krusei = test: Determination of fungal susceptibility (MIC); format: cell-based; details: CYG medium, 2 days at 37° C., growth to 35% of control or less
Protocol: as §1, §2

Candida parapsilosis = test: Determination of fungal susceptibility (MIC); format: cell-based; details: CYG medium, 2 days at 37° C., growth to 35% of control or less
Protocol: as §1, §2

Cryptococcus neoformans = test: Determination of fungal susceptibility (MIC); format: cell-based; details: CYG medium, 5 days at 30° C., growth to 35% of control or less
Protocol: as §1, §2

[1] = tested on: Trichophyton mentagrophytes; test: Determination of fungal susceptibility (MIC); format: cell-based; details: CYG medium, 5 days at 30° C., growth to 35% of control or less
Protocol: as §1, §2

[2] = Water solubility in citric acid/Na2HPO4 buffered water; format: physicochemical; details: water buffered with citric acid/Na2HPO4, aqueous buffer, thermodynamic from solid, UV spectroscopy
Protocol: An excess of compound was added to water buffered with 0.1 M citric acid and 0.2 M Na2HPO4 in a ratio of 61.5/38.5 (pH=4). The mixture was shaken during 1 day at room temperature. The precipitate was filtered off.

## CC(OCC(N)Cc1ccccc1)C(C)n1ncn(-c2ccc(N3CCN(c4ccc(OCC5COC(Cn6cncn6)(c6ccc(F)cc6F)O5)cc4)CC3)cc2)c1=O (stereo not drawn) [Compound 3]
Candida tropicalis
  MIC values in 10^−6 M: 0.1 10^−6 M
Trichophyton rubrum
  MIC values in 10^−6 M: 0.1 10^−6 M
Aspergillus fumigatus
  MIC values in 10^−6 M: 1 10^−6 M
Microsporum canis
  MIC values in 10^−6 M: 1 10^−6 M
Candida glabrata
  MIC values in 10^−6 M: 1 10^−6 M
Candida albicans
  MIC values in 10^−6 M: <0.01 10^−6 M
Candida kefyr
  MIC values in 10^−6 M: <0.01 10^−6 M
Candida krusei
  MIC values in 10^−6 M: 1 10^−6 M
Candida parapsilosis
  MIC values in 10^−6 M: <0.01 10^−6 M
Cryptococcus neoformans
  MIC values in 10^−6 M: 0.1 10^−6 M
[1]
  MIC values in 10^−6 M: 1 10^−6 M
[2]; pH 3.65, shaken 1 day at room temperature
  solubility at 1 day: > 7090 µg/mL

## CCC(COCCN(CC)CC)n1ncn(-c2ccc(N3CCN(c4ccc(OCC5COC(Cn6cncn6)(c6ccc(F)cc6F)O5)cc4)CC3)cc2)c1=O (stereo not drawn) [Compound 5]
Candida tropicalis
  MIC values in 10^−6 M: 1 10^−6 M
Trichophyton rubrum
  MIC values in 10^−6 M: 10 10^−6 M
Aspergillus fumigatus
  MIC values in 10^−6 M: 1 10^−6 M
Microsporum canis
  MIC values in 10^−6 M: <0.1 10^−6 M
Candida glabrata
  MIC values in 10^−6 M: 10 10^−6 M
Candida albicans
  MIC values in 10^−6 M: <0.1 10^−6 M
Candida kefyr
  MIC values in 10^−6 M: <0.1 10^−6 M
Candida krusei
  MIC values in 10^−6 M: 10 10^−6 M
Candida parapsilosis
  MIC values in 10^−6 M: <0.1 10^−6 M
Cryptococcus neoformans
  MIC values in 10^−6 M: 1 10^−6 M
[1]
  MIC values in 10^−6 M: 10 10^−6 M
[2]; pH 4.05, shaken 1 day at room temperature
  solubility at 1 day: > 12000 µg/mL
